Source: patent publication US11299472B2, “Fumarate salt of (R)-3-(1-(2,3-dichloro-4-(pyrazin-2-yl)phenyl)-2,2,2- trifluoroethyl)-1-methyl-1-(1-methylpiperidin-4-yl) urea, methods of preparation, and uses thereof” (Helsinn Healthcare SA, priority 2017, dated 2022)
Read-outs that look alike come from different tables or passages of the source.

Test: Dog pharmacokinetic study, single oral HM04 fumarate salt 3, 10, 30 mg/kg (Example 10)
Assay type: in vivo, male Beagle dogs
Details: for concentration at 0.5 h: 0.50 hours
Description: The pharmacokinetics of HM04 in plasma after single oral administration of HM04 fumarate salt to 6-week old male Sprague Dawley rats and male Beagle dogs (1-5 years of age) was investigated. Test formulations of 0.6 mg/mL, 2 mg/mL, and 6 mg/mL HM04 fumarate salt (based on weight of the free base) were prepared in 5% glucose solution. Doses of 3, 10, and 30 mg/kg HM04 fumarate salt (based on weight of the free base) were administered by gastric gavage as a 5 mL/kg dose volume of each of the three test formulations. Four animals were in each dose group. The formulation was administered to the dogs in fasting conditions with food provided three hours post-dosing.
Oral absolute bioavailability at 3 mg/kg was calculated from the ratio of individual oral AUC∞ to the individual AUC∞ values determined following intravenous administration of 3 mg/kg HM04 fumarate salt (based on weight of the free base) to the same four male Beagle dogs.
Oral absolute bioavailability at 10 mg/kg was calculated from the ratio of individual oral AUC∞ to the individual AUC∞ values determined following intravenous administration of 10 mg/kg HM04 fumarate salt (based on weight of the free base) to the same four male Beagle dogs.
Plasma HM04 concentrations were measured by LC-MS/MS following protein precipitation in the 96-well plate format. At the time of analysis samples were thawed out at ambient temperature. Aliquots of 25 μL of rat or dog K3EDTA plasma were spiked with 300 μL of internal standard (25 ng/mL of HM04-d8 in acetonitrile). After gentle vortex mixing for 5 minutes and centrifugation at 2010 g for 15 minutes at 4° C., an aliquot of 100 μL of the organic phase was transferred into a fresh 96-well polypropylene plate, using a P3-Evolution robotic system (Perkin Elmer). Following dilution with 100 μL of […] ammonium formate pH 3.5, an aliquot of 10 μL was injected into the LC-MS/MS system.

[1] = male, Beagle, plasma, 3 mg/kg oral, n=4
[2] = male, Beagle, plasma, 10 mg/kg oral, n=4
[3] = male, Beagle, plasma, 30 mg/kg oral, n=4
[4] = oral dose range of 3 to 30 mg/kg

For `CN1CCC(N(C)C(=O)N[C@H](c2ccc(-c3cnccn3)c(Cl)c2Cl)C(F)(F)F)CC1.O=C(O)/C=C/C(=O)O` [HM04 fumarate salt, (R)-3-(1-(2,3-dichloro-4-(pyrazin-2-yl)phenyl)-2,2,2-trifluoroethyl)-1-methyl-1-(1-methylpiperidin-4-yl)urea fumarate salt], the AUC(0-t) [1] was 2160 ± 1720 ng·h/mL, the Cmax [1] was 425 ± 222 ng/mL and the Tmax [1] was 0.875 ± 0.25 h. For the same molecule, the half-life (male, Beagle, plasma, 3 mg/kg oral, n=4, read-out: t1/2 (converted)) was 4.02 ± 1.21 h, the bioavailability (male, Beagle, plasma, 10 mg/kg oral vs 10 mg/kg intravenous, individual AUC∞ ratios) was 68 ± 10% and the concentration at 0 h (male, Beagle, plasma, 10 mg/kg oral, 0 hours (pre-dose), n=4) was 2.15 ± 4.3 ng/mL. For the same molecule, the concentration at 0.25 h [2] was 307 ± 246 ng/mL, the concentration at 0.5 h [2] was 862 ± 460 ng/mL and the concentration at 1 h [2] was 1510 ± 435 ng/mL. The concentration at 2 h [2] was 1170 ± 260 ng/mL, the concentration at 4 h [2] was 789 ± 150 ng/mL and the concentration at 8 h [2] was 468 ± 171 ng/mL. The concentration at 24 h [2] was 65.1 ± 65.2 ng/mL, the AUC(0-t) [2] was 10900 ± 3500 ng·h/mL and the Cmax [2] was 1510 ± 435 ng/mL. The Tmax [2] was 1 h, the half-life (male, Beagle, plasma, 10 mg/kg oral, n=4, read-out: t1/2 (converted)) was 4.93 ± 1.31 h and the concentration at 0.25 h [3] was 1940 ± 1330 ng/mL. It also gave a concentration at 0.5 h [3] of 3730 ± 1560 ng/mL, a concentration at 1 h [3] of 5720 ± 1200 ng/mL and a concentration at 2 h [3] of 5030 ± 710 ng/mL. The concentration at 4 h [3] was 3780 ± 577 ng/mL, the concentration at 8 h [3] was 2440 ± 176 ng/mL and the concentration at 24 h [3] was 560 ± 147 ng/mL. It also gave an AUC(0-t) [3] of 54000 ± 6010 ng·h/mL, a Cmax [3] of 5720 ± 1200 ng/mL and a Tmax [3] of 1 h. The half-life (male, Beagle, plasma, 30 mg/kg oral, n=4, read-out: t1/2 (converted)) was 6.97 ± 0.613 h, the half-life (male, Beagle, plasma, intravenous, range, read-out: half-life after intravenous administration) was 4 to 5 h and the AUC(0-inf) (male, Beagle, plasma, iv, 3 mg/kg, Dog 1, 3 mg/kg intravenous, read-out: individual IV AUC∞) was 6190 ng·h/mL. It also gave an AUC(0-inf) (male, Beagle, plasma, iv, 3 mg/kg, Dog 2, 3 mg/kg intravenous, read-out: individual IV AUC∞) of 3100 ng·h/mL, an AUC(0-inf) (male, Beagle, plasma, iv, 3 mg/kg, Dog 3, 3 mg/kg intravenous, read-out: individual IV AUC∞) of 3210 ng·h/mL and an AUC(0-inf) (male, Beagle, plasma, iv, 3 mg/kg, Dog 4, 3 mg/kg intravenous, read-out: individual IV AUC∞) of 3070 ng·h/mL. It also gave an AUC(0-inf) (male, Beagle, plasma, iv, 10 mg/kg, Dog 1, 10 mg/kg intravenous, read-out: individual IV AUC∞) of 22500 ng·h/mL, an AUC(0-inf) (male, Beagle, plasma, iv, 10 mg/kg, Dog 2, 10 mg/kg intravenous, read-out: individual IV AUC∞) of 13200 ng·h/mL and an AUC(0-inf) (male, Beagle, plasma, iv, 10 mg/kg, Dog 3, 10 mg/kg intravenous, read-out: individual IV AUC∞) of 15500 ng·h/mL. The AUC(0-inf) (male, Beagle, plasma, iv, 10 mg/kg, Dog 4, 10 mg/kg intravenous, read-out: individual IV AUC∞) was 14900 ng·h/mL, the half-life (male, Beagle, plasma, oral 3 to 30 mg/kg, range, read-out: apparent terminal half-life) was 4 to 7 h and the AUC(0-inf) (male, Beagle, plasma, po, 3 mg/kg, Dog 1, 3 mg/kg oral, read-out: individual oral AUC∞) was 4930 ng·h/mL. It also gave an AUC(0-inf) (male, Beagle, plasma, po, 3 mg/kg, Dog 2, 3 mg/kg oral, read-out: individual oral AUC∞) of 1440 ng·h/mL, an AUC(0-inf) (male, Beagle, plasma, po, 3 mg/kg, Dog 3, 3 mg/kg oral, read-out: individual oral AUC∞) of 1160 ng·h/mL and an AUC(0-inf) (male, Beagle, plasma, po, 3 mg/kg, Dog 4, 3 mg/kg oral, read-out: individual oral AUC∞) of 1850 ng·h/mL. For the same molecule, the AUC(0-inf) (male, Beagle, plasma, po, 10 mg/kg, Dog 1, 10 mg/kg oral, read-out: individual oral AUC∞) was 17500 ng·h/mL, the AUC(0-inf) (male, Beagle, plasma, po, 10 mg/kg, Dog 2, 10 mg/kg oral, read-out: individual oral AUC∞) was 8780 ng·h/mL and the AUC(0-inf) (male, Beagle, plasma, po, 10 mg/kg, Dog 3, 10 mg/kg oral, read-out: individual oral AUC∞) was 8470 ng·h/mL. For the same molecule, the AUC(0-inf) (male, Beagle, plasma, po, 10 mg/kg, Dog 4, 10 mg/kg oral, read-out: individual oral AUC∞) was 10900 ng·h/mL, the AUC versus dose [4] was “increased more than in direct proportion with the dose” and the Cmax versus dose [4] was “increased roughly proportionally with the dose”. For the same molecule, the “time to maximal concentrations of HM04” value (single oral administrations, post-dosing) was at most 1 h.
